{"source": "patent US11358977B2", "about": "“Deuterated pyridone amides and prodrugs thereof as modulators of sodium channels” (VERTEX PHARMACEUTICALS INCORPORATED, priority 2017, dated 2022)", "key": {"[1]": {"assay": "In vitro hepatocyte assay: prodrug conversion to parent compound", "assay_type": "in vitro ADME, human", "method": "Materials. Cryopreserved human hepatocytes and Cryopreserved Hepatocytes Recovery Medium (CHRM™) were purchased from Life Technologies (Carlsbad, Calif.). Gibco™ Leibovitz's L-15 Medium was purchased from Fisher Scientific (Waltham, Mass.).\nMethods. 10 mM stock solutions containing Compound 20 and Compound 13 were prepared in DMSO. Equal volumes of the two 10 mM stock solutions were mixed to form a combination stock solution containing Compound 20 and Compound 13 in concentrations of 5 mM each. The 5 mM combination stock solution was diluted to a concentration of 50 μM of each compound in DMSO (“50 μM combination stock”). Cryopreserved human hepatocytes were thawed in CHRM™ medium and prepared as a suspension in incubation medium (L-15 Medium with supplements containing glucose, HEPES buffer and NaHCO3), with the final cell concentration of 0.625 million cells/mL. In a 48 well plate, 1 μL of the 50 μM combination stock and then 199 μL of hepatocyte suspension (0.625 million cells/mL) were added to each well. The plate was covered and incubated at 37° C. in an incubator with gentle shaking (50 rpm). The reactions were quenched at 0, 0.25, 0.5, 1 and 2 hours by adding 200 μL of ice-cold quench solution (ACN:MeOH:0.1% aqueous formic acid, 2:2:1) containing internal standard (n=3 per time point). […] LC-MS/MS analysis was conducted using a Phenomenex Luna C8 column (3 micron, 2 mm diameter×30 mm long, at room temperature) eluted with a gradient consisting of mobile phases of 0.1% formic acid in water and 0.1% formic acid in acetonitrile at a total flow rate of 0.6 mL/min and a total run time of 4.5 minutes. The analytes were detected by MS/MS with Electrospray Ionization (ESI) in the mode of multiple reaction monitoring (MRM). The injection volume was 10 μL."}, "[2]": {"assay": "In vitro microsomal metabolic stability assay, human", "assay_type": "in vitro ADME", "details": "human liver microsomes 0.25 mg/mL, 1.0 μM compound, NADPH", "method": "(§1) Materials. Rat, Dog, Monkey and Human liver microsomes (20 mg/mL) were obtained from Xenotech, LLC (Lenexa, Kans.). P-nicotinamide adenine dinucleotide phosphate, reduced form (NADPH), magnesium chloride (MgCl2), and dimethyl sulfoxide (DMSO) were purchased from Sigma-Aldrich.\n(§2) Methods. […] The 10 mM stock solutions were diluted to 100 μM in DMSO. In each cluster polypropylene tube, 190.7 μL of 100 mM phosphate buffer, pH 7.4 was added, then 2.5 μL of liver mocrosomes (20 mg/mL, rat, dog, monkey or human) was added, then a 2 μL aliquot of the 100 μM test compound was added, and the mixture was pre-warmed for 10 minutes. Reactions were initiated by addition of 4.8 μL of pre-warmed NADPH solution (100 mM in 100 mM phosphate buffer). The final reaction volume was 200 μL and contained 0.25 mg/mL rat, dog, monkey or human liver microsomes, 1.0 μM test compound, and 2.4 mM NADPH in 0.1 M potassium phosphate buffer, pH 7.4. The reaction mixtures were incubated at 37° C., and the reactions were quenched at 0, 15, 30 and 60 minutes by adding 200 μL of ice-cold quench solution (ACN:MeOH:0.1% formic acid in water 2:2:1) containing internal standard, n=3 per time point. The tubes were centrifuged and supernatants were analyzed for amounts of the test compound remaining by LC-MS/MS. The HPLC system included a Phenomenex Luna C8 column, 3 micron, 2 mm diameter×30 mm long eluted with a gradient mobile phase consisting of 0.1% formic acid in water or in acetonitrile. The analytes were detected by MS/MS with Electrospray Ionization (ESI) in the mode of multiple reaction monitoring (MRM). The injection volume was 10 μL."}, "[3]": {"assay": "In vitro microsomal metabolic stability assay, dog", "assay_type": "in vitro ADME", "details": "dog liver microsomes 0.25 mg/mL, 1.0 μM compound, NADPH", "method": "as §1, §2"}, "[4]": {"assay": "In vivo pharmacokinetic study, rat IV", "design": "species or system Male Sprague Dawley rats", "details": "male, Sprague Dawley, plasma, rat IV bolus, cassette, nominal 0.5 mg/kg", "method": "General Procedures. Concentrations of the test compounds in plasma were determined using a high performance liquid chromatography/tandem mass spectrometry (HPLC/MS/MS) method. The test compounds along with the internal standard (IS) were extracted from plasma (20 μL) by direct protein precipitation with acetonitrile (1:25 ratio of plasma/acetonitrile). After centrifugation, the supernatant extract (10 μL) was injected onto the LC/MS/MS system. The HPLC system included a Phenomenex Luna C8 column, 3 micron, 2 mm diameter×30 mm long eluted with a gradient mobile phase consisting of 0.1% formic acid in water or in acetonitrile. The analytes were detected by MS/MS with Electrospray Ionization (ESI) in the mode of multiple reaction monitoring (MRM). The lower limit of quantitation (LLOQ) was 1.00 ng/mL. The linear range of the assay was from 1 to 3000 ng/mL. The assay accuracy was within 20% of the nominal values.\nPlasma concentration-time profiles of the test compounds were analyzed by noncompartmental pharmacokinetic methods using PK module in Watson, Version 7.4.2 (Thermo Scientific). Pharmacokinetic parameters including AUCa11, AUC0-∞, C0, Cl, Vss and t1/2 were determined.\nDescriptive statistical data of plasma concentrations and pharmacokinetic parameter estimates were calculated, including the mean, standard deviation (SD), and coefficient of variation (% CV) using Microsoft Excel 2010.\nRat IV Study. Compounds 7 and 10 were administered simultaneously in a single intravenous bolus to Male Sprague Dawley rats (n=3) via jugular cannula. The nominal dose of each compound was 0.5 mg/kg. The cassette dosing solution was formulated in D5W with additives Animals had free access to food and water before and after dosing. Blood samples (approximately 0.25 mL each) were collected via a carotid artery catheter prior to dosing and at 0 (predose), 5 min, 10 min, 0.25, 0.5, 1, 2, 4, 8, 12, 24 hours post dose. Each blood sample was collected into a tube that was kept on wet ice and contained potassium EDTA as the anticoagulant. Plasma was separated and stored at approximately −70° C. until analysis.\nPlasma samples and dosing solutions were analyzed using a liquid chromatography/tandem mass spectrometry (LC/MS/MS) method to determine the concentrations of Compounds 7 and 10 with a lower limit of quantitation (LLOQ) of 1.00 ng/mL. The average plasma concentrations of Compounds 7 and 10 are plotted in FIG. 5 and are also presented in tabular form in Table 5.\nPlasma concentration vs. time data were subjected to noncompartmental pharmacokinetic (PK) analysis. To determined the measured dose of each compound, the dose formulation (50 μL) was aliquoted into a cluster tube at the time of dosing. Then 450 μL of DMSO was added to the tube to dilute it 10×. Then the diluted dosing solution was spiked into rat blank plasma with 100× dilution. The resulting plasma sample was analyzed along with the plasma samples collected from rats that were dosed with the compounds, using the same LC/MS/MS method."}, "[5]": {"assay": "In vitro microsomal metabolic stability assay, monkey", "assay_type": "in vitro ADME", "details": "monkey liver microsomes 0.25 mg/mL, 1.0 μM compound, NADPH", "method": "as §1, §2"}, "[6]": {"assay": "In vitro microsomal metabolic stability assay, rat", "assay_type": "in vitro ADME", "details": "rat liver microsomes 0.25 mg/mL, 1.0 μM compound, NADPH", "method": "as §1, §2"}}, "data": [{"smiles": "Cc1cc(F)ccc1Oc1cc(C(F)(F)F)ccc1C(=O)Nc1ccn(COP(=O)(O)O)c(=O)c1", "note": "[Compound 20, (4-(2-(4-fluoro-2-methylphenoxy)-4-(trifluoromethyl)benzamido)-2-oxopyridin-1(2H)-yl)methyl dihydrogen phosphate, reference compound]", "values": [{"measurement": "half-life at 0.25 µM", "setting": "[1]; cryopreserved human hepatocytes in suspension, cryopreserved human hepatocytes 0.625 million cells/mL, 37° C., Compounds 20 and 13 co-incubated, read-out: t1/2 in human hepatocytes", "result": "< 0.5", "unit": "h"}, {"measurement": "conversion of prodrug to parent compound", "setting": "[1]; human hepatocytes, LC-MS/MS, Compound 20 to Compound 10, Compound 13 to Compound 7", "result": "fast conversion"}, {"measurement": "% remaining", "setting": "[1]; human hepatocytes, time 0 hr", "result": 100, "unit": "%"}, {"measurement": "% remaining", "setting": "[1]; human hepatocytes, time 0.25 hr", "result": 75.1, "unit": "%"}, {"measurement": "% remaining", "setting": "[1]; human hepatocytes, time 0.5 hr", "result": 32.7, "unit": "%"}, {"measurement": "% remaining", "setting": "[1]; human hepatocytes, time 1 hr", "result": 11.2, "unit": "%"}, {"measurement": "% remaining", "setting": "[1]; human hepatocytes, time 2 hr", "result": 11.6, "unit": "%"}]}, {"smiles": "Cc1cc(F)ccc1Oc1cc(C(F)(F)F)ccc1C(=O)Nc1cc[nH]c(=O)c1", "note": "[Compound 10, 2-(4-fluoro-2-methylphenoxy)-N-(2-oxo-1,2-dihydropyridin-4-yl)-4-(trifluoromethyl)benzamide, reference compound]", "values": [{"measurement": "% remaining", "setting": "[2]; 0 min", "result": 100, "unit": "%"}, {"measurement": "% remaining", "setting": "[2]; 15 min", "result": 110, "unit": "%"}, {"measurement": "% remaining", "setting": "[2]; 30 min", "result": 105, "unit": "%"}, {"measurement": "% remaining", "setting": "[2]; 60 min", "result": 106, "unit": "%"}, {"measurement": "% remaining", "setting": "[3]; 0 min", "result": 100, "unit": "%"}, {"measurement": "% remaining", "setting": "[3]; 15 min", "result": 85.9, "unit": "%"}, {"measurement": "% remaining", "setting": "[3]; 30 min", "result": 85.4, "unit": "%"}, {"measurement": "% remaining", "setting": "[3]; 60 min", "result": 85.7, "unit": "%"}, {"measurement": "concentration at 0.083 h", "setting": "[4]; 0.083 hours", "result": 391, "unit": "ng/mL"}, {"measurement": "concentration at 0.167 h", "setting": "[4]; 0.167 hours", "result": 349, "unit": "ng/mL"}, {"measurement": "concentration at 0.25 h", "setting": "[4]; 0.25 hours", "result": 316, "unit": "ng/mL"}, {"measurement": "concentration at 0.5 h", "setting": "[4]; 0.5 hours", "result": 239, "unit": "ng/mL"}, {"measurement": "concentration at 1 h", "setting": "[4]; 1 hour", "result": 174, "unit": "ng/mL"}, {"measurement": "concentration at 2 h", "setting": "[4]; 2 hours", "result": 111, "unit": "ng/mL"}, {"measurement": "concentration at 4 h", "setting": "[4]; 4 hours", "result": 51.6, "unit": "ng/mL"}, {"measurement": "concentration at 8 h", "setting": "[4]; 8 hours", "result": 14.3, "unit": "ng/mL"}, {"measurement": "concentration at 12 h", "setting": "[4]; 12 hours", "result": 4.27, "unit": "ng/mL"}, {"measurement": "AUC", "setting": "[4]; noncompartmental analysis", "result": 415, "unit": "ng·h/mL"}, {"measurement": "AUC(0-inf)", "setting": "[4]; noncompartmental analysis", "result": 422, "unit": "ng·h/mL"}, {"measurement": "C0", "setting": "[4]; noncompartmental analysis", "result": 245, "unit": "ng/mL"}, {"measurement": "clearance", "setting": "[4]; noncompartmental analysis", "result": 22.1, "unit": "mL/min/kg"}, {"measurement": "half-life", "setting": "[4]; noncompartmental analysis", "result": 2.2, "unit": "h"}, {"measurement": "Vd", "setting": "[4]; noncompartmental analysis, read-out: Vss", "result": 3.4, "unit": "L/kg"}, {"measurement": "% remaining", "setting": "[5]; 0 min", "result": 100, "unit": "%"}, {"measurement": "% remaining", "setting": "[5]; 15 min", "result": 96.4, "unit": "%"}, {"measurement": "% remaining", "setting": "[5]; 30 min", "result": 92.4, "unit": "%"}, {"measurement": "% remaining", "setting": "[5]; 60 min", "result": 91.4, "unit": "%"}, {"measurement": "% remaining", "setting": "[6]; 0 min", "result": 100, "unit": "%"}, {"measurement": "% remaining", "setting": "[6]; 15 min", "result": 108, "unit": "%"}, {"measurement": "% remaining", "setting": "[6]; 30 min", "result": 102, "unit": "%"}, {"measurement": "% remaining", "setting": "[6]; 60 min", "result": 87.4, "unit": "%"}]}]}
